Data: US20100093760A1, “METHODS FOR IDENTIFYING COMPOUNDS THAT MODULATE CELL SIGNALING AND METHODS EMPLOYING SUCH COMPOUNDS” (The General Hospital Corporation, priority 2006, published 2010)
Like-named read-outs stand apart in the source and are kept apart here.

Tested on: zebrafish embryos
Format: in vivo
Conditions: for Mild % / Mild dorsalization, number of embryos / Moderate % / Moderate dorsalization, number of embryos / Normal % / Normal, number of embryos / Severe % / Severe dorsalization, number of embryos / % Mild / % Moderate-Severe / Mild, number of embryos / Moderate-Severe, number of embryos / Total % Dorsalized: scored at 48 hpf
[1] = 10 μM, continuous exposure from 2 hpf
[2] = 10 μM, continuous exposure from 4 hpf
[3] = 10 μM, continuous exposure from 6 hpf
[4] = 10 μM, continuous exposure from 8 hpf
[5] = 10 μM, continuous exposure from 10 hpf
[6] = 10 μM, interval exposure 2-4 hpf
[7] = 10 μM, interval exposure 2-6 hpf
[8] = 10 μM, interval exposure 2-8 hpf
[9] = 10 μM, interval exposure 4-8 hpf
[10] = 10 μM, interval exposure 6-8 hpf
[11] = dorsomorphin 10 μM, treatment at 3 hpf

c1cc(-c2cnn3cc(-c4ccc(OCCN5CCCCC5)cc4)cnc23)ccn1 [Compound C/Dorsomorphin]
toxicity (10 μM): No toxicity was observed
Mild % [1]: 0%
Mild dorsalization, number of embryos [1]: 0
Moderate % [1]: 0%
Moderate dorsalization, number of embryos [1]: 0
Normal % [1]: 0%
Normal, number of embryos [1]: 0
Severe % [1]: 100%
Severe dorsalization, number of embryos [1]: 20
Mild % [2]: 0%
Mild dorsalization, number of embryos [2]: 0
Moderate % [2]: 100%
Moderate dorsalization, number of embryos [2]: 19
Normal % [2]: 0%
Normal, number of embryos [2]: 0
Severe % [2]: 0%
Severe dorsalization, number of embryos [2]: 0
Mild % [3]: 22%
Mild dorsalization, number of embryos [3]: 4
Moderate % [3]: 78%
Moderate dorsalization, number of embryos [3]: 14
Normal % [3]: 0%
Normal, number of embryos [3]: 0
Severe % [3]: 0%
Severe dorsalization, number of embryos [3]: 0
Mild % [4]: 85%
Mild dorsalization, number of embryos [4]: 17
Moderate dorsalization, number of embryos [4]: 0
Normal, number of embryos [4]: 3
Severe % [4]: 0%
Severe dorsalization, number of embryos [4]: 0
Mild % [5]: 0%
Mild dorsalization, number of embryos [5]: 0
Moderate % [5]: 0%
Moderate dorsalization, number of embryos [5]: 0
Normal % [5]: 100%
Normal, number of embryos [5]: 20
Severe % [5]: 0%
Severe dorsalization, number of embryos [5]: 0
dorsalization phenotype (10 μM, continuous from 2 hpf): severe dorsalization with high penetrance
dorsalization phenotype (10 μM, exposure from 4-8 and 6-8 hpf): mild to moderate dorsalization
Mild % [6]: 10%
Mild dorsalization, number of embryos [6]: 2
Moderate % [6]: 90%
Moderate dorsalization, number of embryos [6]: 18
Normal % [6]: 0%
Normal, number of embryos [6]: 0
Severe dorsalization, number of embryos [6]: 0
Mild % [7]: 17%
Mild dorsalization, number of embryos [7]: 3
Moderate % [7]: 44%
Moderate dorsalization, number of embryos [7]: 8
Normal % [7]: 0%
Normal, number of embryos [7]: 0
Severe % [7]: 39%
Severe dorsalization, number of embryos [7]: 7
Mild % [8]: 0%
Mild dorsalization, number of embryos [8]: 0
Moderate % [8]: 0%
Moderate dorsalization, number of embryos [8]: 0
Normal % [8]: 0%
Normal, number of embryos [8]: 0
Severe % [8]: 100%
Severe dorsalization, number of embryos [8]: 20
Mild % [9]: 65%
Mild dorsalization, number of embryos [9]: 15
Moderate % [9]: 35%
Normal % [9]: 0%
Normal, number of embryos [9]: 0
Severe % [9]: 0%
Severe dorsalization, number of embryos [9]: 0
Mild % [10]: 95%
Mild dorsalization, number of embryos [10]: 19
Moderate % [10]: 5%
Moderate dorsalization, number of embryos [10]: 1
Normal % [10]: 0%
Normal, number of embryos [10]: 0
Severe % [10]: 0%
Severe dorsalization, number of embryos [10]: 0
dorsalization phenotype (10 μM, treated at 2-4 hpf): severe dorsalization defects
dorsalization phenotype (10 μM, treated at 6-8 hpf): mild dorsalization
dorsalization phenotype (10 μM, treatment at 10 hpf and beyond): did not induce dorsalization
nonspecific toxicity (5-20 uM): absence of other nonspecific toxicity
dorsalization phenotype (5 to 10 μM from 3 hpf): progressively more severe dorsalization in a progressively higher percentage of embryos
dorsalization phenotype (10 (unit not given) from 3 hpf): moderate or severe dorsalization in nearly all embryos examined
% Mild (DM 0.2 μM from 3 hpf): 0%
% Moderate-Severe (DM 0.2 μM from 3 hpf): 0%
Mild, number of embryos (DM 0.2 μM from 3 hpf): 0
Moderate-Severe, number of embryos (DM 0.2 μM from 3 hpf): 0
Normal, number of embryos (DM 0.2 μM from 3 hpf): 60
Total % Dorsalized (DM 0.2 μM from 3 hpf): 0%
% Mild (DM 0.5 μM from 3 hpf): 0%
% Moderate-Severe (DM 0.5 μM from 3 hpf): 0%
Mild, number of embryos (DM 0.5 μM from 3 hpf): 0
Moderate-Severe, number of embryos (DM 0.5 μM from 3 hpf): 0
Normal, number of embryos (DM 0.5 μM from 3 hpf): 59
Total % Dorsalized (DM 0.5 μM from 3 hpf): 0%
% Mild (DM 1 μM from 3 hpf): 0%
% Moderate-Severe (DM 1 μM from 3 hpf): 0%
Mild, number of embryos (DM 1 μM from 3 hpf): 0
Moderate-Severe, number of embryos (DM 1 μM from 3 hpf): 0
Normal, number of embryos (DM 1 μM from 3 hpf): 60
Total % Dorsalized (DM 1 μM from 3 hpf): 0%
% Mild (DM 2 μM from 3 hpf): 0%
% Moderate-Severe (DM 2 μM from 3 hpf): 0%
Mild, number of embryos (DM 2 μM from 3 hpf): 0
Normal, number of embryos (DM 2 μM from 3 hpf): 60
Total % Dorsalized (DM 2 μM from 3 hpf): 0%
% Mild (DM 5 μM from 3 hpf): 19%
% Moderate-Severe (DM 5 μM from 3 hpf): 0%
Mild, number of embryos (DM 5 μM from 3 hpf): 11
Moderate-Severe, number of embryos (DM 5 μM from 3 hpf): 0
Normal, number of embryos (DM 5 μM from 3 hpf): 48
Total % Dorsalized (DM 5 μM from 3 hpf): 19%
% Mild (DM 7.5 μM from 3 hpf): 58%
% Moderate-Severe (DM 7.5 μM from 3 hpf): 42%
Mild, number of embryos (DM 7.5 μM from 3 hpf): 35
Moderate-Severe, number of embryos (DM 7.5 μM from 3 hpf): 25
Normal, number of embryos (DM 7.5 μM from 3 hpf): 0
Total % Dorsalized (DM 7.5 μM from 3 hpf): 100%
% Mild (DM 10 μM from 3 hpf): 3%
% Moderate-Severe (DM 10 μM from 3 hpf): 98%
Mild, number of embryos (DM 10 μM from 3 hpf): 1
Moderate-Severe, number of embryos (DM 10 μM from 3 hpf): 39
Normal, number of embryos (DM 10 μM from 3 hpf): 0
Total % Dorsalized (DM 10 μM from 3 hpf): 100%
% Dorsalized [11]: 100%
Dorsalized, number of embryos [11]: 26
Early lethality, number of embryos [11]: 3
Total survivors [11]: 26
dorsalization and toxicity (same conditions as C75 (3 hpf)): induced dorsalization with high penetrance and minimal toxicity
dorsalization phenotype (≦2 μM from 3 hpf): did not elicit dorsalization
cyclopia (phenotype of defective TGF-β signaling) (≧5 μM at ≦8 hpf): did not result in cyclopia
